The text below walks through data of article PMC4433267, “Corosolic Acid Inhibits Hepatocellular Carcinoma Cell Migration by Targeting the VEGFR2/Src/FAK Pathway” (PLoS ONE, 2015).

By IC50 is commonly meant the midpoint of a concentration-inhibition curve.

For the assay, the target named is VEGFR2 (KDR) (Homo sapiens, UniProt P35968). Put plainly: ADP-Glo kinase assay with purified KDR (Promega V2681), […] ATP. In kind it is biochemical. (ADP-Glo first removes unused ATP, then detects ADP through luciferase.)
Sequence of VEGFR2 (KDR) (P35968 20-1356): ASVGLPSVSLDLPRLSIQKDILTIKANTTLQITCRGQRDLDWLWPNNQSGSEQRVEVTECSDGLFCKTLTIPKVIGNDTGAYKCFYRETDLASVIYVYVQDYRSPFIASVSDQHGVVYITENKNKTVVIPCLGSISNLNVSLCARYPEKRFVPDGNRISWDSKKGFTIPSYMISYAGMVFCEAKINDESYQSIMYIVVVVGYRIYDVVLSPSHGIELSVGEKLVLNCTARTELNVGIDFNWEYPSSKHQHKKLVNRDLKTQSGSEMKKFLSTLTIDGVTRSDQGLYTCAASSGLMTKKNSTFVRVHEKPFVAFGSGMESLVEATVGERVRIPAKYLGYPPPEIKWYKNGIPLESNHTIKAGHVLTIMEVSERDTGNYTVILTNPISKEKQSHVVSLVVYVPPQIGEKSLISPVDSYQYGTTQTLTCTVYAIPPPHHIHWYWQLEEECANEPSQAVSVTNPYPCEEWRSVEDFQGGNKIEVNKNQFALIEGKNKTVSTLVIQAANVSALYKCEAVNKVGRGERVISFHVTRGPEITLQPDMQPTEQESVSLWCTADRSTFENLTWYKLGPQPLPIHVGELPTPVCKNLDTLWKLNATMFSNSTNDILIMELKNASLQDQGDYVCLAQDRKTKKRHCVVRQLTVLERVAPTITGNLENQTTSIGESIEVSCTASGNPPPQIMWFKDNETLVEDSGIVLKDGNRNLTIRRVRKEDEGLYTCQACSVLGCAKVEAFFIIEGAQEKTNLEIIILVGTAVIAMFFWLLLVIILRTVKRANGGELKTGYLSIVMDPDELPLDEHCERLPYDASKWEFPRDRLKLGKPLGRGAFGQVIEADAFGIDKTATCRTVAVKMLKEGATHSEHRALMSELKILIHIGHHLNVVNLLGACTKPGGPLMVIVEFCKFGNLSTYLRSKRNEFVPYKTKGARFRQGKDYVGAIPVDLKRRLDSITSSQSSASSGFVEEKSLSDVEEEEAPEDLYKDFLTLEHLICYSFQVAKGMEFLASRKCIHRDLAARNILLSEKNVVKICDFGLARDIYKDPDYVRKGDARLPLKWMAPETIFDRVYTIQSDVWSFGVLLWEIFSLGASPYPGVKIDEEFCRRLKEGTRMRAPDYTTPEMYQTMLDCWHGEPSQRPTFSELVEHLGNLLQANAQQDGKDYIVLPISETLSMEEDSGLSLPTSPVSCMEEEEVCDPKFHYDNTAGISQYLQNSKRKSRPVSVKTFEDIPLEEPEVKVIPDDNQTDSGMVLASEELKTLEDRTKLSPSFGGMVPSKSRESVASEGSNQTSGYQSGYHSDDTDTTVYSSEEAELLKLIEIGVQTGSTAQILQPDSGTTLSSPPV

With `C[C@H]1[C@H](C)CC[C@]2(C(=O)O)CC[C@]3(C)C(=CC[C@@H]4[C@@]5(C)C[C@@H](O)[C@H](O)C(C)(C)[C@@H]5CC[C@]43C)[C@H]12` [CA, corosolic acid], the IC50 is 950 nM.
